Source: US7071168B2, “Anti-cancer compounds and methods related thereto” (The Regents of the University of Colorado, priority 1998, dated 2006)

Tests used:
[1] = biological target: T1, cloned human bradykinin B2 receptors (Homo sapiens, UniProt P30411); assay: Anti-bradykinin activity on cloned human B2 receptors (CHO cells, Cytosensor microphysiometer); format: cell-based; conditions: higher numbers indicate higher potency
T1 sequence (P30411 1-391): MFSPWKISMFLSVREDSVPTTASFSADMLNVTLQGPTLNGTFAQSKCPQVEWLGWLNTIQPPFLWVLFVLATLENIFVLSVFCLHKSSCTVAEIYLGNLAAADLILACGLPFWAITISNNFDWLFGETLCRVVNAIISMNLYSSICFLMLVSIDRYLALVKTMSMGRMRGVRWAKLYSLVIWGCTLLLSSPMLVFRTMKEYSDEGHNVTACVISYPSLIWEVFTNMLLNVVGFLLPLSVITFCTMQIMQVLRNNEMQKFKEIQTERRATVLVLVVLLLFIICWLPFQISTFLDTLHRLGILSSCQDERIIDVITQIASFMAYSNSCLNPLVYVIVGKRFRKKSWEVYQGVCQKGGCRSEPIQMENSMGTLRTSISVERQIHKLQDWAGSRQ
Protocol: In general, Anti-bradykinin activity was determined by the classical guinea pig ileum assay and on Chinese hamster ovary (CHO) cells expressing cloned human bradykinin B2 receptors. Anti-tumor activity was determined on cultured human cancer cell lines using the standard tetrazolium (MTT) assay.
Chinese hamster ovary cells containing cloned and expressed human bradykinin B2 receptors were grown in cell cups of the Cytosensor microphysiometer in Ham's F-12 medium supplemented with sodium pyruvate and 10% FBS (Gibco 11765-054). For assay the cells were transferred to Ham's F-12 without bicarbonate or serum (Gibco 21700-075) and placed in the Cytosensor. Concentration-response curves were constructed to bradykinin in the presence or absence of new compounds.

[2] = tested on: SCLC strain SHP-77; assay: Colorimetric tetrazolium (MTT) assay for cell survival, SCLC strain SHP-77; format: cell-based, human
Procedure, shortened: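 MTT assay: cells seeded overnight, treated in triplicate across a concentration range for 4 days at 37 °C, 5% CO2. On day 5, MTT was added for 4 h; formazan was dissolved in acidified isopropanol and absorbance read.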

[3] = tested on: bradykinin response of isolated guinea pig ileum; assay: Anti-bradykinin activity on isolated guinea pig ileum
Procedure, shortened: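 Bradykinin concentration-effect curves were run in the absence and presence of compound. Tissue: 25 mm terminal ileum from male Hartley guinea pigs fasted overnight, held at 1 g tension in O2/CO2-bubbled Krebs' solution after 1 h equilibration.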

[4] = Table 1, higher numbers indicate higher potency
[5] = cloned human B2 receptors, pD2 for bradykinin is 11
[6] = isolated guinea pig ileum, pD2 of bradykinin is 7.4, higher numbers indicate higher potency

| Compound | MTT: ED50 for killing of SCLC strain SHP-77 in vitro ([2]; Table 1, SHP-77, MTT, 4 days) | GPI: pA2 for bradykinin antagonist activity on isolated guinea pig ileum [3, 4] | MTT: ED50 for killing of SCLC strain SHP-77 in vitro ([2]; SCLC strain SHP-77 in vitro) | further results |
| --- | --- | --- | --- | --- |
| F5c-OC2Y-Arg [M512] | 70 µM | 5.7 | – | HUMAN: pA2 for bradykinin antagonist potency on cloned human B2 receptors ([1]; Table 1): 11 |
| CN(C)c1cccc2c(S(=O)(=O)NC(Cc3ccc(OCc4ccccc4)cc3)C(=O)NC3CC(C)(C)NC(C)(C)C3)cccc12 (stereo not drawn) [M574] | – | – | 4.5 µM | HUMAN: pA2 for bradykinin antagonist potency on cloned human B2 receptors [1, 5]: Inact |
| DDD-(DArg-OC2Y-Arg)2 [M518] | 15 µM | – | – | HUMAN: pA2 for bradykinin antagonist potency on cloned human B2 receptors ([1]; Table 1): 10 |
| O=C(C=Cc1cccnc1)NC(Cc1ccc2ccccc2c1)C(=O)Nc1cccc(CO)c1 (stereo not drawn) [M474] | – | – | 35 µM | HUMAN: pA2 for bradykinin antagonist potency on cloned human B2 receptors [1, 5]: Inact |
| O=C(C=Cc1cccnc1)Nc1ccc(C(=O)NC(Cc2ccc3ccccc3c2)C(=O)O)cc1 (stereo not drawn) [M422] | – | – | 52 µM | HUMAN: pA2 for bradykinin antagonist potency on cloned human B2 receptors [1, 5]: Inact |
| CC1(C)CC(NC(=O)[C@H](CC(=O)O)NC(=O)[C@H](Cc2ccc3ccccc3c2)NC(=O)CCCCCCCCCCC(=O)N[C@@H](Cc2ccc3ccccc3c2)C(=O)N[C@@H](CC(=O)O)C(=O)NC2CC(C)(C)NC(C)(C)C2)CC(C)(C)N1 [M432] | – | – | 70 µM | HUMAN: pA2 for bradykinin antagonist potency on cloned human B2 receptors [1, 5]: 10 |
| CC1(C)CC(NC(=O)C(Cc2ccc(OCc3c(Cl)cccc3Cl)cc2)NC(=O)C(C#N)=Cc2ccc(O)cc2)CC(C)(C)N1 (stereo not drawn) [M602] | – | – | 12 µM | HUMAN: pA2 for bradykinin antagonist potency on cloned human B2 receptors [1, 5]: 10.8 |
| CC1(C)CC(NC(=O)C(NC(=O)C=Cc2ccc(NC(=O)CCCCCCCCC(=O)O)cc2)C2Cc3ccccc3C2)CC(C)(C)N1 (stereo not drawn) [M586-B] | – | – | 40 µM | HUMAN: pA2 for bradykinin antagonist potency on cloned human B2 receptors [1, 5]: 12.3 |
| DDD-(Arg-DIgl-Oic-Arg-OMe)2 [M598] | 13 µM | – | – | HUMAN: pA2 for bradykinin antagonist potency on cloned human B2 receptors ([1]; Table 1): 10 |
| Cc1cc(NC(=O)C(Cc2ccc3ccccc3c2)NC(=O)C=Cc2c(F)c(F)c(F)c(F)c2F)c2ccccc2n1 (stereo not drawn) [M314] | – | – | 25 µM | GPI: pA2 for bradykinin antagonist activity on isolated guinea pig ileum [3, 6]: 4.6 |
| DArg-Arg-Pro-Hyp-Gly-Igl-Ser-DIgl-Oic-Arg-Eac-Eac-DArg-Arg-Pro-Hyp-Gly-Igl-Ser-DIgl-Oic-Arg [B10088] | 4 µM | 7.1 | – | – |
| CC1(C)CC(NC(=O)C(Cc2ccc(OCc3ccccc3)cc2)NC(=O)C=Cc2c(F)c(F)c(F)c(F)c2F)CC(C)(C)N1 (stereo not drawn) [M318] | – | – | 3.6 µM | GPI: pA2 for bradykinin antagonist activity on isolated guinea pig ileum [3, 6]: 5.1 |
| c[DArg-Arg-Ava-Ser-DF5F-Oic-Arg] [M908] | – | – | – | MTT: ED50 for killing of SCLC strain SHP-77 in vitro ([2]; Table 3, cyclic peptides): 40 µM; GPI: pA2 for bradykinin antagonist activity on isolated guinea pig ileum ([3]; Table 3, cyclic peptides): 4.9 |
| Dcg-F5F-Arg [M130] | 20 µM | 4.8 | – | – |
| CC1(C)CC(NC(=O)[C@@H](Cc2ccc3ccccc3c2)NC(=NC2CCCCC2)NC2CCCCC2)CC(C)(C)N1 [M262] | – | – | 6 µM | GPI: pA2 for bradykinin antagonist activity on isolated guinea pig ileum [3, 6]: 5.3 |
| c[DArg-Arg-Aud-DF5F-Oic-Arg] [M868-2] | – | – | – | MTT: ED50 for killing of SCLC strain SHP-77 in vitro ([2]; Table 3, cyclic peptides): 9.2 µM; GPI: pA2 for bradykinin antagonist activity on isolated guinea pig ileum ([3]; Table 3, cyclic peptides): 6.1 |
| CC1(C)CC(NC(=O)C(Cc2ccc3ccccc3c2)NC(=O)C=Cc2ccc(N)cc2)CC(C)(C)N1 (stereo not drawn) [M308] | – | – | >75 µM | GPI: pA2 for bradykinin antagonist activity on isolated guinea pig ileum [3, 6]: 5.0 |
| DDD-(p-ABz-hPhe-Arg)2 [M552] | Inact | Inact | – | – |
| CC1(C)CC(NC(=O)[C@H](Cc2ccc3ccccc3c2)NC(=O)C(c2ccccc2)c2ccccc2)CC(C)(C)N1 [M272] | – | – | 9 µM | GPI: pA2 for bradykinin antagonist activity on isolated guinea pig ileum [3, 6]: 5.2 |
| DDD-(DArg-F5F-DArg)2 [M1036] | 40 µM | 5.4 | – | – |
| F5c-DArg-Eac-hPhe-Arg [M738] | Inact | 5.3 | – | – |
| CC1(C)CC(NC(=O)[C@H](Cc2ccc3ccccc3c2)NC(=NC2CCCCC2)NC2CCCCC2)(C(=O)O)CC(C)(C)N1 [M244B] | – | – | Inact | GPI: pA2 for bradykinin antagonist activity on isolated guinea pig ileum [3, 6]: 4.9 |

| Compound | MTT: ED50 for killing of SCLC strain SHP-77 in vitro ([2]; Table 1, SHP-77, MTT, 4 days) | GPI: pA2 for bradykinin antagonist activity on isolated guinea pig ileum [3, 4] | MTT: ED50 for killing of SCLC strain SHP-77 in vitro ([2]; SCLC strain SHP-77 in vitro) | further results |
| --- | --- | --- | --- | --- |
| F5c-MFF-Arg [M826] | 76 µM | Inact | – | – |
| F5c-DArg-Arg-Aud-Ser-DIgl-Oic-Arg [M856] | 21 µM | 5.4 | – | – |
| CC1(C)CC(NC(=O)[C@@H](NC(=N)CCCCCCCCCCCCC(=N)N[C@H](C(=O)NC2CC(C)(C)NC(C)(C)C2)C2Cc3ccccc3C2)C2Cc3ccccc3C2)CC(C)(C)N1 [M280] | – | – | 6 µM | GPI: pA2 for bradykinin antagonist activity on isolated guinea pig ileum [3, 6]: 5.2 |
| CC1=C(CC(=O)NC(Cc2ccc3ccccc3c2)C(=O)NC2CC(C)(C)NC(C)(C)C2)c2cc(F)ccc2C1=Cc1ccc([S+](C)[O-])cc1 (stereo not drawn) [M656] | – | – | 13 µM | GPI: pA2 for bradykinin antagonist activity on isolated guinea pig ileum [3, 6]: 5.4 |
| CN(C(=O)[C@H](Cc1ccc(OCc2c(Cl)cccc2Cl)cc1)NC(=O)c1nc(Cl)c(Cl)c(N)c1Cl)C1CC(C)(C)NC(C)(C)C1 [M632] | – | – | 1.4 µM | GPI: pA2 for bradykinin antagonist activity on isolated guinea pig ileum [3, 6]: 5.4 |
| c[DArg-Arg-Aud-Ser-DF5F-Oic-Arg] [M876] | – | – | – | MTT: ED50 for killing of SCLC strain SHP-77 in vitro ([2]; Table 3, cyclic peptides): 22.5 µM; GPI: pA2 for bradykinin antagonist activity on isolated guinea pig ileum ([3]; Table 3, cyclic peptides): 5.4 |
| F5c-DArg-Arg-Aud-DIgl-hPhe-Arg [M774] | 8 µM | Inact | – | – |
| CN(C(=O)C(Cc1ccc(OCc2c(Cl)cccc2Cl)cc1)NC(=O)C=Cc1c(F)c(F)c(F)c(F)c1F)C1CC(C)(C)N(C)C(C)(C)C1 (stereo not drawn) [M622] | – | – | 1.2 µM | GPI: pA2 for bradykinin antagonist activity on isolated guinea pig ileum [3, 6]: 5.7 |
| DDD-(DArg-Arg-Aud-PaF(F5c)-Arg)2 [M728] | 4 µM | 5.3 | – | – |
| DDD-(Eac-Arg-DIgl-Oic-Arg-OMe)2 [M608] | 13 µM | – | – | HUMAN: pA2 for bradykinin antagonist potency on cloned human B2 receptors ([1]; Table 1): Inact |
| Dpa-PFF-Arg [M816] | 52 µM | 4.6 | – | – |
| DDD-(DArg-Arg-Aud-Pac-PaF(Fbz)-Arg)2 [M734] | 1.8 µM | 5.3 | – | – |
| EGS-(DArg-Arg-Eac-Ser-DF5F-Nc7G-Arg)2 [M1030] | 51 µM | 7.0 | – | – |
| c[DArg-Arg-Add-DF5F-Oic-Arg] [M870] | – | – | – | MTT: ED50 for killing of SCLC strain SHP-77 in vitro ([2]; Table 3, cyclic peptides): 5.5 µM; GPI: pA2 for bradykinin antagonist activity on isolated guinea pig ileum ([3]; Table 3, cyclic peptides): 5.3 |
| DDD-(DArg-PFF-Arg)2 [M820] | 43 µM | Inact | – | – |
| CC1(C)CC(NC(=O)C(Cc2cccc3ccccc23)NC(=O)C=Cc2ccc(NC(=O)CCCCCCCCCCC(=O)Nc3ccc(C=CC(=O)NC(Cc4cccc5ccccc45)C(=O)NC4CC(C)(C)NC(C)(C)C4)cc3)cc2)CC(C)(C)N1 (stereo not drawn) [M616] | – | – | 1.4 µM | GPI: pA2 for bradykinin antagonist activity on isolated guinea pig ileum [3, 6]: 5.4 |
| Aca-c[DArg-Arg-Pro-Hyp-Gly-Thi-Ser-Nig-Oic-Arg] [B10304] | – | – | – | MTT: ED50 for killing of SCLC strain SHP-77 in vitro ([2]; Table 3, cyclic peptides): Inact; GPI: pA2 for bradykinin antagonist activity on isolated guinea pig ileum ([3]; Table 3, cyclic peptides): 6.4 |
| F5c-Lys-Ser-DF5F-Oic-Arg [M802] | Inact | 6.3 | – | – |
| CN(C)c1ccc(CNC(=O)C(Cc2ccc3ccccc3c2)NC(=O)C=Cc2c(F)c(F)c(F)c(F)c2F)cc1 (stereo not drawn) [M536] | – | – | 4 µM | HUMAN: pA2 for bradykinin antagonist potency on cloned human B2 receptors [1, 5]: Inact |
| F5c-PaF(Ppa)-Arg [M720] | Inact | 4.8 | – | – |
| CC1(C)CC(NC(=O)[C@H](Cc2ccc3ccccc3c2)NC(=O)C=Cc2c(F)c(F)c(F)c(F)c2F)CC(C)(C)N1 [M248] | – | – | 3.2 µM | GPI: pA2 for bradykinin antagonist activity on isolated guinea pig ileum [3, 6]: 6.2 |
